Assay [1] is filed under the species Rattus norvegicus. Kind of assay: Maximal degree of inhibition at 3-30 uM concentration was determined from displacement of [3H]-dopamine binding to rat brain striatal membrane. It is filed as functional. In general terms: In a radioligand displacement assay an active substance lowers the binding of a labelled ligand.
The species named for assay [2] is Rattus norvegicus. Kind of assay: Contralateral rotation produced by intrastriatal injection in rats with unilateral 6-hydroxydopamine-induced lesions of the substantia nigra at 30 nmol; turns/5 min. The format is functional.
The species named for assay [3] is Rattus norvegicus. Kind of assay: Maximal degree of inhibition was determined from displacement of [3H]dopamine binding to rat brain striatal membrane. It is filed as functional.
The species named for assay [4] is Rattus norvegicus. Kind of assay: Contralateral rotation produced by intrastriatal injection in rats with unilateral 6-hydroxydopamine-induced lesions of the substantia nigra at 90 nmol; turns/5 min. It is filed as functional.
Assay [5] is filed under the species Rattus norvegicus. Kind of assay: Compound concentration required to reduce specific binding of tritiated dopamine to rat brain striatal membrane.
The species named for assay [6] is Rattus norvegicus. Nature of the assay: Contralateral rotation produced by intrastriatal injection in rats with unilateral 6-hydroxydopamine-induced lesions of the substantia nigra at 10 nmol; turns/5 min. It is filed as functional.
The species named for assay [7] is Rattus norvegicus. Kind of assay: Contralateral rotation produced by intrastriatal injection in rats with unilateral 6-hydroxydopamine-induced lesions of the substantia nigra at 10 nmol. The format is functional.
The species entered for assay [8] is Rattus norvegicus. Nature of the assay: Contralateral rotation produced by intrastriatal injection in rats with unilateral 6-hydroxydopamine-induced lesions of the substantia nigra at 2 microL; turns/5 min. It is filed as functional.
For assay [9], the species on record is Rattus norvegicus. Kind of assay: Compound concentration required to reduce specific binding of tritiated dopamine to rat brain striatal membrane by 50 % was reported.
The species entered for assay [10] is Rattus norvegicus. Conditions: Striatum, 1 uM.

For `C[S+](C)C`, the inhibition in the assay filed under Rattus norvegicus [1] is 9%.

In the case of `C[S+](C)CCc1ccc(O)c(O)c1.[I-]`, the results for the Rate of rotation in the assay listed under Rattus norvegicus [2], in the assay listed under Rattus norvegicus [4] and in the assay listed under Rattus norvegicus [6] were 20.75, 31.5 and 11.25, respectively. The inhibition in the assay filed under Rattus norvegicus [3] was determined as 19%. The same compound returned an IC50 in the assay listed under Rattus norvegicus [5] of 440 nM.

`C[S+](C)CC(=O)c1ccc(O)c(O)c1.[I-]`: the values for the Rate of rotation in the assay listed under Rattus norvegicus [2], in the assay listed under Rattus norvegicus [7] and in the assay filed under Rattus norvegicus [4] were 25.33, 8.4 turns 5min-1 and 38.83, respectively. For the same compound, in the assay listed under Rattus norvegicus [3], the inhibition worked out at 29%. The IC50 in the assay listed under Rattus norvegicus [5] is 370 nM.

For the compound `O=C1O[C@H]([C@@H](O)CO)C(O)=C1O` [ASCORBIC ACID], in the assay filed under Rattus norvegicus [8], the Rate of rotation came to 4.5.

`NCCc1ccc(O)c(O)c1` [DOPAMINE]: in the assay listed under Rattus norvegicus [9], the IC50 came to 29 nM. In the assay filed under Rattus norvegicus [10], this compound registered a Total binding of 72%. In the assay listed under Rattus norvegicus [6], this compound yielded a Rate of rotation of 39.75.

What is called inhibition is how much of the control response was suppressed. A lower inhibition goes with little suppression. A word on the IC50: it is the midpoint of a concentration-inhibition curve. A low value points to higher potency.

For the origin of these results see ChEMBL document CHEMBL1121846, “Synthesis and pharmacological evaluation of sulfonium analogues of dopamine: nonclassical dopamine agonists” (J Med Chem, 1981).
